One compound from ChEMBL document CHEMBL4382262, “Structurally Simple, Readily Available Peptidomimetic 1-Benzyl-5-methyl-4-( n-octylamino)pyrimidin-2(1 H)-one Exhibited Efficient Cardioprotection in a Myocardial Ischemia (MI) Mouse Model” (J Med Chem, 2018) can be followed below.

Active and inactive are the calls of the source. The rule behind the calls is not given here.

In data set [1] the target is T1, Toll-like receptor 4 (Rattus norvegicus) (UniProt Q9QX05).
T1 sequence (whole entry): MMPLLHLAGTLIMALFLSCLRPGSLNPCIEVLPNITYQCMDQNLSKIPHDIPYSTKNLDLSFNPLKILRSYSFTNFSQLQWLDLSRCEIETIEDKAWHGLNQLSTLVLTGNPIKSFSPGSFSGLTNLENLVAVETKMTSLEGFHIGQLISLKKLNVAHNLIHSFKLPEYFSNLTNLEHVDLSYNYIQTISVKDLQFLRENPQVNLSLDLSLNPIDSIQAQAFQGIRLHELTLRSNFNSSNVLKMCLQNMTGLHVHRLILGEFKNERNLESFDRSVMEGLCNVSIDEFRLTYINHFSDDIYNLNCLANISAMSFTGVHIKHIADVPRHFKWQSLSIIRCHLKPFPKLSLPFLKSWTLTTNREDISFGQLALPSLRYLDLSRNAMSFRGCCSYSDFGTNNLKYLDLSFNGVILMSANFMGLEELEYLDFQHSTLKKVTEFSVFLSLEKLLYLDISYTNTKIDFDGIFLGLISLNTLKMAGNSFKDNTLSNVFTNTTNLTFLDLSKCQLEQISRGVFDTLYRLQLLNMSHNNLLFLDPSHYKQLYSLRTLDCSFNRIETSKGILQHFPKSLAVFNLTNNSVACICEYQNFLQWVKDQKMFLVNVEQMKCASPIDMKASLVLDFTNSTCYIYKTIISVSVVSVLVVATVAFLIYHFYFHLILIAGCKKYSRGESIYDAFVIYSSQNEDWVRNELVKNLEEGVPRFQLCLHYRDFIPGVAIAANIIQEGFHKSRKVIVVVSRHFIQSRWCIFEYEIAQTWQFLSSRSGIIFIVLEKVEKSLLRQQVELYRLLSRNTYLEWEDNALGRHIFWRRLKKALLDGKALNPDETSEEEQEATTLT
As to the kind of experiment: Inhibition of TLR4 in Sprague-Dawley rat cardiomyocytes assessed as reduction in hypoxia-induced creatine kinase levels at 20 uM preincubated for 1 hr followed by hypoxia for 3 hrs by NADP reduction based colorimetric analysis. The data set is classed as cell-based.

Data set [2] concerns the target T1, Toll-like receptor 4 (Rattus norvegicus). Description: Inhibition of TLR4 in Sprague-Dawley rat cardiomyocytes assessed as reduction in hypoxia-induced IRF3 protein expression at 20 uM preincubated for 1 hr followed by hypoxia for 3 hrs by Western blot analysis relative to untreated control. The data set is classed as cell-based. Background: A western blot detects proteins with antibodies after separation by electrophoresis.

The test system of data set [3] is Mus musculus. As to the kind of experiment: Cardioprotective activity in C57BL mouse model of left anterior descending coronary artery ligation-induced myocardial ischemia assessed as reduction in LDH […] levels at 0.3 mg/kg, iv pretreated for 1 hr followed by left anterior descending coronary artery ligation. The data set is classed as functional, organism-based.

In data set [4] the target is T1, Toll-like receptor 4 (Rattus norvegicus). As to the kind of experiment: Inhibition of TLR4 in Sprague-Dawley rat cardiomyocytes assessed as reduction in hypoxia-induced creatine kinase levels at 20 uM preincubated for 1 hr followed by induction of hypoxia measured after 3 hrs by NADP reduction based colorimetric analysis. The data set is classed as cell-based.
The test system of data set [5] is Mus musculus. Description: Cardioprotective activity in C57BL mouse model of left anterior descending coronary artery ligation-induced myocardial ischemia assessed as reduction in fibrosis at 0.3 mg/kg, iv treated 1 hr after left anterior descending coronary artery ligation and measured after 7 days post LAD by hematoxylin/eosin staining based light microscopy. Type of data set: functional, organism-based.

In data set [6] the test system is Mus musculus. Description: Cardioprotective activity in C57BL mouse model of left anterior descending coronary artery ligation-induced myocardial ischemia assessed as reduction in troponin levels at 0.3 mg/kg, iv pretreated for 1 hr followed by left anterior descending coronary artery ligation. Type of data set: functional, organism-based.
Data set [7] addresses T1, Toll-like receptor 4 (Rattus norvegicus). As to the kind of experiment: Inhibition of TLR4 in Sprague-Dawley rat cardiomyocytes assessed as reduction in hypoxia-induced LDH release at 10 uM preincubated for 1 hr followed by hypoxia for 3 hrs by NADH detection based colorimetric analysis. Type of data set: cell-based. (In general: Release of lactate dehydrogenase indicates damage to the cell membrane.)

The target is the same in data set [8]. As to the kind of experiment: Inhibition of TLR4 in Sprague-Dawley rat cardiomyocytes assessed as reduction in hypoxia-induced LDH release at 30 uM preincubated for 1 hr followed by hypoxia for 3 hrs by NADH detection based colorimetric analysis. The data set is classed as cell-based.
The test system of another data set is Cardiac muscle cell. Description: Cytotoxicity against Sprague-Dawley rat cardiomyocytes assessed as reduction in cell viability at 50 uM. Type of data set: cell-based.
The nature of data set [9]: Hepatotoxicity in C57BL mouse model of left anterior descending coronary artery ligation-induced myocardial ischemia assessed as effect on serum AST levels at 0.05 to 1 mg/kg, iv pretreated for 1 hr followed by left anterior descending coronary artery ligation. The data set is classed as toxicity, organism-based. Particulars: in vivo.
Data set [10] addresses T1, Toll-like receptor 4 (Rattus norvegicus). Description: Inhibition of TLR4 in Sprague-Dawley rat cardiomyocytes assessed as reduction in hypoxia-induced creatine kinase levels at 30 uM preincubated for 1 hr followed by hypoxia for 3 hrs by NADP reduction based colorimetric analysis. Type of data set: cell-based.
The target is the same in data set [11]. As to the kind of experiment: Inhibition of TLR4 in Sprague-Dawley rat cardiomyocytes assessed as reduction in hypoxia-induced LDH release at 5 uM preincubated for 1 hr followed by hypoxia for 3 hrs by NADH detection based colorimetric analysis. The data set is classed as cell-based.
The subject of data set [12] is Mus musculus. Description: Cardioprotective activity in C57BL mouse model of left anterior descending coronary artery ligation-induced myocardial ischemia assessed as reduction in serum LDH levels at 0.3 mg/kg, iv treated for 1 hr after by left anterior descending coronary artery ligation and measured after 24 hrs post LAD. The data set is classed as functional, organism-based.

The subject of data set [13] is Mus musculus. As to the kind of experiment: Cardioprotective activity in C57BL mouse model of left anterior descending coronary artery ligation-induced myocardial ischemia assessed as reduction in creatine kinase levels at 0.3 mg/kg, iv pretreated for 1 hr followed by left anterior descending coronary artery ligation. The data set is classed as functional, organism-based.

Data set [14] has as its system Mus musculus. As to the kind of experiment: Cardioprotective activity in C57BL mouse model of left anterior descending coronary artery ligation-induced myocardial ischemia assessed as reduction in creatine kinase levels at 0.3 mg/kg, iv treated 1 hr after by left anterior descending coronary artery ligation and measured after 7 days post LAD. Type of data set: functional, organism-based.

Data set [15] concerns the target T1, Toll-like receptor 4 (Rattus norvegicus). Description: Inhibition of TLR4 in hypoxia-induced Sprague-Dawley rat cardiomyocytes assessed as increase in IkappaB-alpha protein expression at 20 uM preincubated for 1 hr followed by hypoxia for 3 hrs by Western blot analysis relative to untreated control.
The target is the same in data set [16]. As to the kind of experiment: Inhibition of TLR4 in Sprague-Dawley rat cardiomyocytes assessed as reduction in hypoxia-induced LDH release at 20 uM preincubated for 1 hr followed by hypoxia for 3 hrs by NADH detection based colorimetric analysis. The data set is classed as cell-based.
For data set [17], the system named is Mus musculus. As to the kind of experiment: Cardioprotective activity in C57BL mouse model of left anterior descending coronary artery ligation-induced myocardial ischemia assessed as reduction in heart infarct size at 0.05 to 1 mg/kg, iv pretreated for 1 hr followed by left anterior descending coronary artery ligation. The data set is classed as functional, organism-based.

The test system of data set [18] is Mus musculus. As to the kind of experiment: Cardioprotective activity in C57BL mouse model of left anterior descending coronary artery ligation-induced myocardial ischemia assessed as reduction in serum LDH levels at 0.3 mg/kg, iv treated 1 hr after by left anterior descending coronary artery ligation and measured after 7 days post LAD. The data set is classed as functional, organism-based.

In data set [19] the test system is Mus musculus. As to the kind of experiment: Cardioprotective activity in C57BL mouse model of left anterior descending coronary artery ligation-induced myocardial ischemia assessed as reduction in creatine kinase levels levels at 0.3 mg/kg, iv treated 1 hr after by left anterior descending coronary artery ligation and measured after 24 hrs post LAD. The data set is classed as functional, organism-based.

Data set [20] concerns the target T1, Toll-like receptor 4 (Rattus norvegicus). Description: Inhibition of TLR4 in Sprague-Dawley rat cardiomyocytes assessed as reduction in hypoxia-induced creatine kinase levels at 10 uM preincubated for 1 hr followed by hypoxia for 3 hrs by NADP reduction based colorimetric analysis. Type of data set: cell-based.

Regarding `CCCCCCCCNc1nc(=O)n(Cc2ccccc2)cc1C`, the inhibition result in [1], in data set [4], in data set [7], in data set [8], in data set [10] and in data set [16] was “Active” throughout. Also, the inhibition entry in data set [20] is “Active”. Besides, the fold change (FC) in data set [2] came to 2.7; in data set [15], 3.3. Further, the outcome in the data set with Mus musculus [3], with Mus musculus [5], with Mus musculus [6], with Mus musculus [12], with Mus musculus [13] and with Mus musculus [14] was Active. Besides, the outcome with Mus musculus [17], with Mus musculus [18] and with Mus musculus [19] was Active. For the same compound, the Activity entry with Cardiac muscle cell is given as “Toxic”; in data set [9], “Non-Toxic”. Besides, the inhibition entry in data set [11] was “inactive”.
